Reference: US7989657B2, “Anthranilic acid derivatives” (Hoffmann-La Roche Inc., priority 2005, dated 2011)

Columns and labels:
HM74A = molecular target: T1, HM74A (Homo sapiens, UniProt Q8TDS4); experiment: Secondary fluorescent calcium indicator assay (FLIPR); assay type: cell-based; conditions: stable transfected HEK-293 cells expressing HM74A and chimeric G protein Gqi9; % stimulation of maximal nicotinic acid response (100 μM)
T1 construct: expressed in transfected cells; host or cells: HEK-293, stably transfected with pcDNA3.1 vectors
T1 sequence (Q8TDS4 whole entry): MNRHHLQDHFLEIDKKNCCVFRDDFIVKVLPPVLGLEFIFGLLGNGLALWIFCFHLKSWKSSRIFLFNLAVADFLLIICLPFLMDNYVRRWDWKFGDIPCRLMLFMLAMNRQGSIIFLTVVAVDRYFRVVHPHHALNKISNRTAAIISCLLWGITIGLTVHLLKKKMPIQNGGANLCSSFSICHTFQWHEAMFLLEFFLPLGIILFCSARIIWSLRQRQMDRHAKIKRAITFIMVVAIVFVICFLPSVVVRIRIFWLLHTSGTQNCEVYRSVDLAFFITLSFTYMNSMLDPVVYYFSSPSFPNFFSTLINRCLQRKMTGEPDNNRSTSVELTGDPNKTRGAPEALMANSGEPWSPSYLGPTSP
Description: Secondary Fluorescent Calcium Indicator Assay (FLIPR)
HEK-293 cells were grown in tissue culture medium (DMEM/Nut mix F12 Medium with Glutamax I (Invitrogen), containing 10% FBS) at 37° C. in a 5% CO2 atmosphere. These cells were cultured in 6-well dishes at 3×10^5 cells/well and double transfected with DNA vectors (pcDNA3.1, Invitrogen) expressing either HM74A or HM74 and the chimeric G protein Gqi9. Two days after transfection the wells were combined and plated in 150 cm^2 flasks, in the presence of 50 μg/ml Hygromycin (Invitrogen) and 500 μg/ml Geneticin (Gibco). Fourteen days after plating, colonies were picked, expanded and analyzed for expression using a functional assay (FLIPR). Stable transfected HEK-293 cells expressing either HM74A or HM74 and the chimeric G protein Gqi9 were plated at 50,000 cells/well in black 96-well plates with clear bottom (Costar) and cultured to confluency overnight in growth media (DMEM/Nut mix F12 Medium with Glutamax I (Invitrogen), containing 10% FBS) at 37° C. in a humidified cell incubator containing 5% CO2. Growth media was aspirated and replaced with 100 μl of 1×FLIPR Calcium Assay Dye (Molecular Devices) in Hank's balanced salt solution (HBSS) containing 10 mM HEPES, and […] probenecid (Sigma), for 1 hour at 37° C. Cell plates were transferred to a FLIPR unit (Molecular Devices), and 50 μl of 3× compound dilution were added. Fluorescence emissions were measured and the effects of compounds were expressed as % stimulation of maximal nicotinic acid response (100 μM). Sigmoidal curves were fitted using the XLfit3 program (ID Business Solutions Ltd. UK) and EC50 values determined.

Compound | EC50 (HM74A) | melting point
2-[4-(4-Fluoro-phenoxy)-benzoylamino]-benzoic acid [Example 2] | 1100 nM | –
O=C(Nc1ccccc1C(=O)O)c1ccc(Oc2cccc(Cl)c2)cc1 [Example 17, 2-[4-(3-Chloro-phenoxy)-benzoylamino]-benzoic acid] | 529 nM | –
O=C(Nc1ccccc1C(=O)O)c1ccc(Oc2cc(F)ccc2F)cc1 [Example 29, 2-[4-(2,5-Difluoro-phenoxy)-benzoylamino]-benzoic acid] | 101 nM | –
Cc1cc(C(=O)Nc2ccccc2C(=O)O)ccc1Oc1ccccc1 [Example 30, 2-(3-Methyl-4-phenoxy-benzoylamino)-benzoic acid] | – | 123 °C
